Patent publication US20230233569A1 (Revolution Medicines, Inc., priority 2020, published 2023)
pIC50: −log10 of the molar value. Values joined by “and” are separate entries in the source; they are usually repeats but may differ in a detail not shown here. Equal values may be shown once. Read-outs that look alike come from different tables or passages of the source.

Key:
NCI-H358 (K-Ras G12C) = assay: CellTiter-Glo cell viability assay, 5-day treatment; format: cell-based; details: Homo sapiens
Method: Protocol: CellTiter-Glo® Cell Viability Assay
Note—The following protocol describes a procedure for monitoring cell viability of K-Ras mutant cancer cell lines in response to a compound of the invention. Other RAS isoforms may be employed, though the number of cells to be seeded will vary based on cell line used.
(§1) Test compounds (132.5 nL) were directly dispensed into the assay plates containing cells. […] On day 5, assay plates and their contents were equilibrated to room temperature for approximately 30 minutes. […] Luminescence was measured using the PerkinElmer Enspire. Data were normalized by the following: (Sample signal/Avg. DMSO)*100. The data were fit using a four-parameter logistic fit.
as §1, with “nl)” for “nL)”

KRAS G12C = KRAS G12C (Homo sapiens, UniProt P01116+P62937, G12C); assay: Disruption of BRAF RBD interaction with Ras (FRET / MOA assay, with Cyclophilin A); format: biochemical
Sequence of KRAS G12C (P01116 1-169 isoform P01116-2 G12C): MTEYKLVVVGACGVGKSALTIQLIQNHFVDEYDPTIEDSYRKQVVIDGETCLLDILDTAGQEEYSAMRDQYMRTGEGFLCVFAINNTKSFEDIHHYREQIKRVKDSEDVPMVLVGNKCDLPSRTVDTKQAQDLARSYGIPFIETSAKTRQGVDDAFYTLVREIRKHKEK
Sequence of KRAS G12C (P62937 whole entry): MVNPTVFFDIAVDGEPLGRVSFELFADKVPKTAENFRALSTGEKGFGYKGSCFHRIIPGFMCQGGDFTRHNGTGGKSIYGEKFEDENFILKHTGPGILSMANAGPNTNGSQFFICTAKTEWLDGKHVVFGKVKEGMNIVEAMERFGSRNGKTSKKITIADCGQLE
Excerpt: (§2) This protocol may also be executed substituting other Ras proteins or nucleotides.
(§3) The purpose of this biochemical assay was to measure the ability of test compounds to facilitate ternary complex formation between a nucleotide-loaded K-Ras isoform and Cyclophilin A; the resulting ternary complex disrupts binding to a BRAF^RBD construct, inhibiting K-Ras signaling through a RAF effector. Data is reported as IC50 values.
(§4) Compound was present in plate wells as a 10-point 3-fold dilution series starting at a final concentration of 30 μM. After incubation at 25° C. for 3 hours, a mixture of Anti-His Eu-W1024 and anti-GST allophycocyanin was then added to assay sample wells at final concentrations of 10 nM and 50 nM, respectively, and the reaction incubated for an additional 1.5 hours. […] Compounds that facilitate disruption of a K-Ras:RAF complex were identified as those eliciting a decrease in the TR-FRET ratio relative to DMSO control wells.
as §3, with “BRAF^RBDD” for “BRAF^RBD”

KRAS G12D = KRAS G12D (Homo sapiens, UniProt P01116+P62937, G12D); assay: as above; format: biochemical
Sequence of KRAS G12D (P01116 1-169 isoform P01116-2 G12D limits assumed): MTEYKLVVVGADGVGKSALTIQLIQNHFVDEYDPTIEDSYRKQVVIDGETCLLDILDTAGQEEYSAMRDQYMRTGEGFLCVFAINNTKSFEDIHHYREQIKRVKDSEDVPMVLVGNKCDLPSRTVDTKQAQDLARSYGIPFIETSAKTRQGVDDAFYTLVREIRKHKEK
Sequence of KRAS G12D (P62937 whole entry): as the sequence (P62937 whole entry) above
Excerpt: as §2, §3, §4
as §3, with “BRAF^RBDD” for “BRAF^RBD”

KRAS G12V = KRAS G12V (Homo sapiens, UniProt P01116+P62937, G12V); assay: as above; format: biochemical
Sequence of KRAS G12V (P01116 1-169 isoform P01116-2 G12V limits assumed): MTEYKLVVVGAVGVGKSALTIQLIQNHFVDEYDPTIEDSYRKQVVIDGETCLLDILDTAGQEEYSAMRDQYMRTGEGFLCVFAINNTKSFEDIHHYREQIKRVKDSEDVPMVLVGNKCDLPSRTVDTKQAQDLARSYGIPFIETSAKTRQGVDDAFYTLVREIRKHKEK
Sequence of KRAS G12V (P62937 whole entry): as the sequence (P62937 whole entry) above
Excerpt: as §2, §3, §4
as §3, with “BRAF^RBDD” for “BRAF^RBD”

KRAS G12S = KRAS G12S (Homo sapiens, UniProt P01116+P62937, G12S); assay: as above; format: biochemical
Sequence of KRAS G12S (P01116 1-169 isoform P01116-2 G12S limits assumed): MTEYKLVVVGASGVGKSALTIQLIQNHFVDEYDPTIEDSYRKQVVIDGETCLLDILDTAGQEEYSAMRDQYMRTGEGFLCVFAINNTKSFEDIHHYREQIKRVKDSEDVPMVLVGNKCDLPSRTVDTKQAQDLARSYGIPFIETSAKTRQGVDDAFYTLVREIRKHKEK
Sequence of KRAS G12S (P62937 whole entry): as the sequence (P62937 whole entry) above
Excerpt: as §2, §3, §4
as §3, with “BRAF^RBDD” for “BRAF^RBD”

KRAS G13C = KRAS G13C (Homo sapiens, UniProt P01116+P62937, G13C); assay: as above; format: biochemical
Sequence of KRAS G13C (P01116 1-169 isoform P01116-2 G13C): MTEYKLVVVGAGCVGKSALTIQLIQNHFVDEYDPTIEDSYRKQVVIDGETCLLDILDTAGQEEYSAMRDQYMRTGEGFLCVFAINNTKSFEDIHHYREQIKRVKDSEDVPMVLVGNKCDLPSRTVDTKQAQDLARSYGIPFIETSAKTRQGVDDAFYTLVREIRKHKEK
Sequence of KRAS G13C (P62937 whole entry): as the sequence (P62937 whole entry) above
Excerpt: as §2, §3, §4
as §3, with “BRAF^RBDD” for “BRAF^RBD”

KRAS G13D = KRAS G13D (Homo sapiens, UniProt P01116+P62937, G13D); assay: as above; format: biochemical
Sequence of KRAS G13D (P01116 1-169 isoform P01116-2 G13D limits assumed): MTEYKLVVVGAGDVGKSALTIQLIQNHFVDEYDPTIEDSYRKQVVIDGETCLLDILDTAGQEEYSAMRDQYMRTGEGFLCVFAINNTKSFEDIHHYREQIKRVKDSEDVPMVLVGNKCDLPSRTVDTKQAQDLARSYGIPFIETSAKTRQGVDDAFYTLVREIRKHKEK
Sequence of KRAS G13D (P62937 whole entry): as the sequence (P62937 whole entry) above
Excerpt: as §2, §3, §4
as §3, with “BRAF^RBDD” for “BRAF^RBD”

NRAS G12C = NRAS G12C (Homo sapiens, UniProt P01111+P62937, G12C); assay: as above; format: biochemical
Sequence of NRAS G12C (P01111 whole entry G12C): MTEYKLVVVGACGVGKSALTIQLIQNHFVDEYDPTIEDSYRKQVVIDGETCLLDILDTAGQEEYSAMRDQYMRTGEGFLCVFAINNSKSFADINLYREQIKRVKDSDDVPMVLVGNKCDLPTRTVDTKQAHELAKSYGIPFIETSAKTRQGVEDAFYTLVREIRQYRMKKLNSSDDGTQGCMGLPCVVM
Sequence of NRAS G12C (P62937 whole entry): as the sequence (P62937 whole entry) above
Excerpt: as §2, §3, §4
as §3, with “BRAF^RBDD” for “BRAF^RBD”

KRAS WT = KRAS WT (Homo sapiens, UniProt P01116+P62937); assay: as above; format: biochemical
Sequence of KRAS WT (P01116 1-169 isoform P01116-2 limits assumed): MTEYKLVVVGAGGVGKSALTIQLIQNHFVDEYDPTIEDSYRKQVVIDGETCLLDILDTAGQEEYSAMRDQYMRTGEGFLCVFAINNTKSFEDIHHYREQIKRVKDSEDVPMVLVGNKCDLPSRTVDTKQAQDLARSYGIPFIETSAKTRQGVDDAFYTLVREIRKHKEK
Sequence of KRAS WT (P62937 whole entry): as the sequence (P62937 whole entry) above
Excerpt: as §2, §3, §4
as §3, with “BRAF^RBDD” for “BRAF^RBD”

[1] = read-out: KRAS G12D FRET data, IC50
[2] = KRAS G12V, read-out: KRAS G12V FRET data IC50
[3] = read-out: KRAS G12S FRET data, IC50
[4] = KRAS G13D, read-out: KRAS G13D FRET data IC50
[5] = NRAS G12C, read-out: NRAS G12C FRET data IC50
[6] = KRAS WT, read-out: KRAS WT FRET data IC50
[7] = NCI-H358, 120 h, 5-day treatment, read-out: H358 Cell Viability assay data (K-Ras G12C, IC50)
[8] = read-out: KRAS G12C FRET data, IC50
[9] = read-out: KRAS G13C FRET data, IC50

pIC50 (KRAS G12D; [1]) | pIC50 (KRAS G12V; [2]) | pIC50 (KRAS G12S; [3]) | pIC50 (KRAS G13D; [4]) | pIC50 (NRAS G12C; [5]) | pIC50 (KRAS WT; [6]) | pIC50 (NCI-H358 (K-Ras G12C); [7]) | pIC50 (KRAS G12C; [8]) | pIC50 (KRAS G13C; [9]) | Compound | further results
< 5.00 | < 5.00 | < 5.00 | < 5.00 | < 5.00 | < 5.00 |  |  |  | C=CC(=O)N1CC[C@H](C(=O)N(C)[C@H](C(=O)N[C@H]2C[C@H]3CN(CCCO3)c3ccc4c(c3)c(c(-c3cccnc3[C@H](C)OC)n4CC)CC(C)(C)COC(=O)[C@@H]3CCCN(N3)C2=O)C(C)C)C1 (racemic) [Example A405] | pIC50 (NCI-H358 (K-Ras G12C); NCI-H358, H358, K-Ras G12C, read-out: Additional H358 Cell Viability assay data (K-Ras G12C, IC50)): < 6.00; pIC50 (KRAS G12C; KRAS G12C, read-out: KRAS G12C FRET data IC50): 5.00 to 6.00; pIC50 (KRAS G13C; KRAS G13C, read-out: KRAS G13C FRET data IC50): < 5.00
5.00 to 6.00 | 6.00 to 7.00 | 6.00 to 7.00 | 6.00 to 7.00 | 6.00 to 7.00 | 6.00 to 7.00 | 5.00 to 6.00 | 7.00 to 8.00 | 6.00 to 7.00 | CCn1c(-c2cnccc2COC)c2c3cc(ccc31)-c1cc(O)cc(c1)C[C@H](NC(=O)[C@H](C(C)C)N(C)C(=O)[C@H]1CCN(C(=O)C3COC3)C1)C(=O)N1CCC[C@H](N1)C(=O)OCC(C)(C)C2 [Example A9] | 
6.00 to 7.00 | 6.00 to 7.00 | 7.00 to 8.00 | 7.00 to 8.00 | 7.00 to 8.00 | 7.00 to 8.00 | 5.00 to 6.00 | 7.00 to 8.00 | 7.00 to 8.00 | CCn1c(-c2cnccc2COC)c2c3cc(ccc31)-c1cc(O)cc(c1)C[C@H](NC(=O)[C@H](C(C)C)N(C)C(=O)[C@H]1CCNC1)C(=O)N1CCC[C@H](N1)C(=O)OCC(C)(C)C2 [Example A10] | 
6.00 to 7.00 and 5.00 to 6.00 | 6.00 to 7.00 and 5.00 to 6.00 | 6.00 to 7.00 and 5.00 to 6.00 | 6.00 to 7.00 and 5.00 to 6.00 | 5.00 to 6.00 | 6.00 to 7.00 and 5.00 to 6.00 |  | 6.00 to 7.00 and 7.00 to 8.00 | 6.00 to 7.00 and 5.00 to 6.00 | CCn1c(-c2cccnc2COC)c2c3cc(ccc31)-c1cc(O)cc(c1)C[C@H](NC(=O)[C@H](C(C)C)N(C)C(=O)[C@H]1CCN(C(=O)CN)C1)C(=O)N1CCC[C@H](N1)C(=O)OCC(C)(C)C2 [Example A12] | pIC50 (NCI-H358 (K-Ras G12C); NCI-H358, 120 h, 5-day treatment, read-out: H358 Cell Viability IC50): 5.37; pIC50 (KRAS G12C; read-out: FRET G12C IC50): 7.17; pIC50 (KRAS G12D; read-out: FRET G12D IC50): 6.81; pIC50 (KRAS G12V; read-out: FRET G12V IC50): 6.48; pIC50 (KRAS G13C; read-out: FRET G13C IC50): 6.83; pIC50 (KRAS G13D; read-out: FRET G13D IC50): 6.66

Compound | pIC50 (KRAS G12D; [1]) | pIC50 (KRAS G12V; [2]) | pIC50 (KRAS G12S; [3]) | pIC50 (KRAS G13D; [4]) | pIC50 (NRAS G12C; [5]) | pIC50 (KRAS WT; [6]) | pIC50 (NCI-H358 (K-Ras G12C); [7]) | pIC50 (KRAS G12C; [8]) | pIC50 (KRAS G13C; [9]) | further results
CCn1c(-c2cnccc2COC)c2c3cc(ccc31)-c1cc(O)cc(c1)C[C@H](NC(=O)[C@H](C(C)C)N(C)C(=O)[C@H]1CCN(CCO)C1)C(=O)N1CCC[C@H](N1)C(=O)OCC(C)(C)C2 [Example A23, (2S)—N-[(8S,14S)-22-ethyl-4-hydroxy-21-[4-(methoxymethyl)pyridin-3-yl]-18,18-dimethyl-9,15-dioxo-16-oxa-10,22,28-triazapentacyclo[18.5.2.1^2,6.1^10,14.0^23,27]nonacosa-1(26),2,4,6(29),20,23(27),24-heptaen-8-yl]-2-{1-[(3S)-1-(2-hydroxyethyl)pyrrolidin-3-yl]-N-methylformamido}-3-methylbutanamide] |  |  |  |  |  |  | 5.00 to 6.00 |  |  | pIC50 (KRAS G12C; KRAS G12C FRET data, IC50): 6.00 to 7.00; pIC50 (KRAS G12D; KRAS G12D FRET data, IC50): 6.00 to 7.00; pIC50 (KRAS G12V; KRAS G12V FRET data IC50, KRAS G12V): 5.00 to 6.00; pIC50 (KRAS G12S; KRAS G12S FRET data, IC50): 6.00 to 7.00; pIC50 (KRAS G13C; KRAS G13C FRET data, IC50): 7.00 to 8.00; pIC50 (KRAS G13D; KRAS G13D FRET data IC50, KRAS G13D): 7.00 to 8.00; pIC50 (NRAS G12C; NRAS G12C FRET data IC50, NRAS G12C): 6.00 to 7.00; pIC50 (KRAS WT; KRAS WT FRET data IC50, KRAS WT): 7.00 to 8.00
